Reference: patent US20210052741A1, “GENE THERAPY METHODS AND COMPOSITIONS USING AUXOTROPHIC REGULATABLE CELLS” (AUXOLYTIC LTD, priority 2018, published 2021)
“And” between values parts separate entries of the source, which are not always exact repeats. Equal entries are not always repeated.

Columns and labels:
Assay type in all cases: cell-based, human
Mock T cells [1] = assay: Growth time course with/without UMP or uridine; details: metabolite 250 μg/ml
Experimental: (§1) Genomic DNA was harvested using QUICKEXTRACT™ DNA Extraction Kit (Epicentre). Cells were counted on an automated cell counter using Trypan blue staining or on a CytoFLEX flow cytometer (Beckman Coulter) with automatic plate reader using COUNTBRIGHT™ beads (ThermoFisher) as a reference for normalizing the values. Alternatively, cells were analyzed after staining with fluorochrome-labelled antibodies (Biolegend) on an ACCURI™ C6 flow cytometer (BD Biosciences), which also measures volumes, or a FACS ARIA™ II SORP cell sorter (BD Biosciences). Data was analyzed using Excel (Microsoft) and FlowJo software (Tree Star).
(§2) T Cells were electroporated and edited as in Example 2 and allowed to recover for a 4-day period in medium with serum, uridine, and UMP. On day 4, cells were shifted to UMP, uridine, or uracil source media.
(§3) To evaluate whether the UMPS knockout leads to differential cell proliferation if cultured without the addition of Uridine or Uridine monophosphate (UMP), the cell counts in culture were followed over time by automatic cell counting with Trypan blue staining. UMPS knockout led to lower cell counts from day 2 after electroporation, compared to cells that were mock electroporated or electroporated using Cas9 targeting a different genomic locus (i.e., CCR5) (FIG. 5B).

UMPS knockout T cells = assay: Growth time course with/without UMP or uridine
Experimental: as §1, §2, §3

CCR5 knockout T cells = assay: Growth time course with/without UMP or uridine; details: metabolite 250 μg/ml
Experimental: as §1, §2, §3

Mock T cells [2] = assay: Uracil auxotrophy growth assay after 5-FOA selection; details: after 4 days 5-FOA selection, 4 days in supplemented media, without serum
Experimental: To assay whether or not the cells selected for by 5-FOA treatment were uracil auxotrophs, mock or UMPS targeted T cells were exposed to 5-FOA as shown in Example 4. Following 4 days of 5-FOA selection, the population of cells was split into an uracil containing media (UMP, uridine or both) and an uracil deficient media. A growth assay was subsequently performed by cell counting after following 4 days incubation in test media (Day 8) (FIG. 4A). In all cases, cell growth in the mock targeted cell cultures was negligible and independent of uracil source supplementation—indicating successful killing of non-UMPS targeted cells during the 5-FOA selection step (FIG. 4B-FIG. 4D).

[3] = system: UMPS^KO/KO/GFP^+ K562 cells; assay: Auxotrophy assay in K562 cells
Experimental: The sorted UMPS^KO/KO/GFP^+ cell population were subjected to assays evaluating their auxotrophy and their resistance to 5-FOA. The cells were split into samples of equal numbers and cultured in the presence of different concentrations of Uridine or without. […] Cell growth was inhibited at a lower concentration (25 μg/ml) while cell numbers declined with a lower concentration or no Uridine (FIG. 6E).

UMPS edited T cells = assay: TIDE analysis of UMPS InDels in mixed UMPS edited population
Experimental: Sanger sequencing of the UMPS locus was performed using UMPS-O-1 and UMPS-O-2, with the region amplified using PHUSION™ Hot Start Flex 2x Master Mix (New England Biolabs, Inc.). Sanger sequencing traces were analyzed by TIDE analysis (see, Brinkman et al, 2014, Nucleic Acids Res. 42(22):e168), which is hereby incorporated by reference in its entirety) to identify insertions and deletions (InDels) after editing. InDel quantification was performed on the sequences using the TIDE online tool (www.deskgen.com/landing/tide.html) (See, M. Sadelain, N. Engl. J. Med. 365, 1735-7 (2011), which is hereby incorporated by reference in its entirety.
T Cells were electroporated and edited as in Example 2 and allowed to recover for a 4-day period in medium with serum, uridine, and UMP. On day 4, cells were shifted to UMP, uridine, or uracil source media. […]
To confirm the results on the genomic level, genomic DNA was harvested at the end of the experiment and InDels were quantified (FIG. 5D-FIG. 5E). FIG. 5D compares the frequency of InDels in different culture conditions for cells not exposed to 5-FOA.

UMPS^KO/KO hESCs = assay: Auxotrophy assay with different uridine concentrations; details: for Viable cell counts: day 4 after seeding
Experimental: The UMPS locus was disrupted in the hESCs by electroporation of Cas9 RNP and selection of a clone with InDels in exon 1 as evaluated by amplification and Sanger sequencing of the genomic locus. For gene editing, hESCs were treated with 10 μm ROCK inhibitor (Y-27632) for 24 hours before electroporation. Cells at 70-80% confluence were harvested with ACCUTASE® solution (Life Technologies). 500,000 cells were used per reaction with a SpCas9 concentration of 150 μg/mL (Integrated DNA Technologies) and a Cas9:sgRNA molar ratio of 1:3 and electroporation performed in P3 Primary Cell solution (Lonza) in 16-well NUCLEOCUVETTE™ Strips in the 4D NUCLEOFECTOR system (Lonza). Immediately after electroporation, cells were transferred into one well of a […]® protein mixture (Corning, Inc.)-coated 24 well plate containing 500 μl of mTeSR™ media ([…] Technologies) with 10 μM Y-27632. Media was changed 24 hours after editing and Y-27632 was removed 48 hours after.
An auxotrophy assay was performed over four days with different concentrations of uridine. Microscope photos of wells were taken on day 4 after seeding UMPS^KO/KO hESCs at similar densities and culturing in the presence of different uridine concentrations. […] Quantification of viable cells on day 4 after seeding to evaluate the effect of different uridine concentrations is shown in Table 15.

[4] = UMPS knockout, metabolite 250 μg/ml
[5] = cells not exposed to 5-FOA, end of experiment, metabolite 250 μg/ml

O=c1ccn([C@@H]2O[C@H](CO)[C@@H](O)[C@H]2O)c(=O)[nH]1 [Uridine]
Cell density, Day 1 (Mock T cells [1]): 9.78E+05 cells per ml | Cell density, Day 2 (Mock T cells [1]): 1.98E+06 cells per ml | Cell density, Day 4 (Mock T cells [1]): 3.90E+06 cells per ml | Cell density, Day 6 (Mock T cells [1]): 4.91E+06 cells per ml | Cell density, Day 8 (Mock T cells [1]): 4.09E+06 cells per ml | Cell density, Day 1 (UMPS knockout T cells; [4]): 7.69E+05 cells per ml | Cell density, Day 2 (UMPS knockout T cells; [4]): 1.59E+06 cells per ml | Cell density, Day 4 (UMPS knockout T cells; [4]): 3.43E+06 cells per ml | Cell density, Day 6 (UMPS knockout T cells; [4]): 3.79E+06 cells per ml | Cell density, Day 8 (UMPS knockout T cells; [4]): 3.17E+06 cells per ml | Number of viable cells per ml, Day 1 (UMPS knockout T cells; [4]): 769000 cells per ml | Number of viable cells per ml, Day 2 (UMPS knockout T cells; [4]): 1590000 cells per ml | Number of viable cells per ml, Day 4 (UMPS knockout T cells; [4]): 3430000 cells per ml | Number of viable cells per ml, Day 6 (UMPS knockout T cells; [4]): 3790000 cells per ml | Number of viable cells per ml, Day 8 (UMPS knockout T cells; [4]): 3170000 cells per ml | growth of UMPS edited culture (UMPS knockout T cells; exogenous uracil source 250 μg/ml): rescued the growth of an UMPS edited culture to the same level as mock edited cells | cell proliferation after UMPS knockout (UMPS knockout T cells; supplemented at 250 μg/ml): not impaired | Cell density, Day 1 (CCR5 knockout T cells): 9.67E+05 cells per ml | Cell density, Day 2 (CCR5 knockout T cells): 1.71E+06 cells per ml | Cell density, Day 4 (CCR5 knockout T cells): 3.70E+06 cells per ml | Cell density, Day 6 (CCR5 knockout T cells): 3.92E+06 cells per ml | Cell density, Day 8 (CCR5 knockout T cells): 3.96E+06 cells per ml | Cells counts on Day 8 (Mock T cells [2]): 1249 and 687 | Number of cells per ml, Day 1 ([3]; 2.5 ug/ml Uridine): 57.83 cells per ml and 49.52 cells per ml and 40.56 cells per ml | Number of cells per ml, Day 1 ([3]; 25 ug/ml Uridine): 60.92 cells per ml and 69.81 cells per ml and 58.10 cells per ml | Number of cells per ml, Day 1 ([3]; 250 ug/ml Uridine): 83.41 cells per ml and 109.11 cells per ml and 64.28 cells per ml | Number of cells per ml, Day 8 ([3]; 250 ug/ml Uridine): 631.12 cells per ml and 629.35 cells per ml and 318.17 cells per ml | cell growth ([3]; Uridine 25 μg/ml): inhibited | cell growth ([3]; Uridine 250 μg/ml): expanded rapidly | cell numbers ([3]; lower Uridine concentration (2.5 μg/ml) or no Uridine): declined | Alleles with frameshift InDels, Percent of alleles (without 5-FOA) (UMPS edited T cells; TIDE, day 8, metabolite 250 μg/ml): 52.5% | Alleles with InDels, Percent of alleles (without 5-FOA) (UMPS edited T cells; TIDE, metabolite 250 μg/ml): 77.0% | frameshift InDel frequency, Percent (UMPS edited T cells; [5]): 52.5% | overall InDel frequency, Percent (%) (UMPS edited T cells; [5]): 77.0% | Predicted viable cell counts, Cells with In-frame InDel (UMPS edited T cells; day 8, metabolite 250 μg/ml): 777000 | Predicted viable cell counts, Cells with frameshift InDel (UMPS edited T cells; day 8, metabolite 250 μg/ml): 1660000 | Predicted viable cell counts, Cells without InDel (UMPS edited T cells; day 8, metabolite 250 μg/ml): 729100 | proliferation (microscope photos, day 4) (UMPS^KO/KO hESCs; 2.5-250 μg/ml uridine): proliferated | Viable cell counts (UMPS^KO/KO hESCs; uridine 2.5 μg/ml): 31040 and 38065 and 45189 | Viable cell counts (UMPS^KO/KO hESCs; uridine 25 μg/ml): 31810 and 39635 and 36283 | Viable cell counts (UMPS^KO/KO hESCs; uridine 250 μg/ml): 19147 and 31050 and 33955
